Experimental findings from patent US9604983B2, “Herbicidal 3-(2-benzyloxyphenyl)-2,4-dihydroxy-1,8-naphthyridine derivatives” (SYNGENTA LIMITED, priority 2013, dated 2017) are described below.

Holding throughout (assay): Post-emergence efficacy, glasshouse pot test
Common to all, as to format: in vivo
What all share (conditions): post-emergence application at 1000 g/ha; evaluated after 13 days; five point scale

One assay relates to Setaria faberi (SETFA). Here is the method:
(§1) B1 Post-emergence Efficacy Seeds of a variety of test species are sown in standard soil in pots:—Solanum nigrum (SOLNI), Amaranthus retoflexus (AMARE), Setaria faberi (SETFA), Alopecurus myosuroides (ALOMY), Echinochloa crus-galli (ECHCG), Ipomoea hederacea (IPOHE). After 8 days cultivation (post-emergence) under controlled conditions in a glasshouse (at 24/16° C., day/night; 14 hours light; 65% humidity), the plants are sprayed with an aqueous spray solution derived from the formulation of the technical active ingredient in acetone/water (50:50) solution containing 0.5% Tween 20 (polyoxyethelyene sorbitan monolaurate, CAS RN 9005-64-5). Compounds are applied at 1000 g/ha. The test plants are then grown in a glasshouse under controlled conditions in a glasshouse (at 24/16° C., day/night; 14 hours light; 65% humidity) and watered twice daily. After 13 days, the test is evaluated for the percentage damage caused to the plant. The biological activities are shown below in Table 13, on a five point scale (5=80-100%; 4=60-79%; 3=40-59%; 2=20-39%; 1=0-19%).

In assay [1] the test system is Ipomoea hederacea (IPOHE). On the procedure: as §1
For the next assay, the system named is Solanum nigrum (SOLNI). On the procedure: as §1
For assay [2], the system named is Alopecurus myosuroides (ALOMY). Here is the method: as §1
Assay [3] deals with Echinochloa crus-galli (ECHCG). Here is the method:
as §1

For assay [4], the system named is Amaranthus retoflexus (AMARE). On the procedure:
as §1

With `C#CCn1c(=O)c(-c2cccc(Cl)c2OCc2ccccc2)c(OC(=O)C(C)C)c2cccnc21` [Compound 9.001], in the assay on Setaria faberi (SETFA), the “percentage damage caused to the plant, SETFA” value is recorded as 1 (1=0-19%). Moreover, in assay [1], the “percentage damage caused to the plant, IPOHE” value is given as 5 (5=80-100%). The “percentage damage caused to the plant, SOLNI” value with Solanum nigrum (SOLNI) is 5 (5=80-100%). For the same molecule, the “percentage damage caused to the plant, ALOMY” value in assay [2] is 1 (1=0-19%). For the same molecule, in assay [3], the “percentage damage caused to the plant, ECHCG” value is reported as 2 (2=20-39%). The “percentage damage caused to the plant, AMARE” value in assay [4] is on record as 3 (3=40-59%).
Consider `C#CCn1c(=O)c(-c2cccc(Cl)c2OCc2ccccc2)c(OC(=O)C(C)C)c2nccnc21` [Compound 9.003], for which the “percentage damage caused to the plant, SETFA” value with Setaria faberi (SETFA) is 5 (5=80-100%). Also, in assay [1], the “percentage damage caused to the plant, IPOHE” value is listed as 5 (5=80-100%). Further, the “percentage damage caused to the plant, SOLNI” value in the assay with Solanum nigrum (SOLNI) was 5 (5=80-100%). The “percentage damage caused to the plant, ALOMY” value in assay [2] is given as 2 (2=20-39%). The “percentage damage caused to the plant, ECHCG” value in assay [3] is 5 (5=80-100%). Also, the “percentage damage caused to the plant, AMARE” value in assay [4] is on record as 4 (4=60-79%).
Consider `C#CCn1c(=O)c(-c2cccc(Cl)c2OCc2ccccc2)c(O)c2cccnc21` [Compound 10.001], for which the “percentage damage caused to the plant, SETFA” value in the assay with Setaria faberi (SETFA) was 1 (1=0-19%). Besides, the “percentage damage caused to the plant, IPOHE” value in assay [1] is reported as 5 (5=80-100%). Also, the “percentage damage caused to the plant, SOLNI” value in the assay on Solanum nigrum (SOLNI) is reported as 5 (5=80-100%). For the same molecule, the “percentage damage caused to the plant, ALOMY” value in assay [2] is given as 1 (1=0-19%). Besides, in assay [3], the “percentage damage caused to the plant, ECHCG” value is listed as 1 (1=0-19%). Further, the “percentage damage caused to the plant, AMARE” value in assay [4] was 4 (4=60-79%).
Turning to `C#CCn1c(=O)c(-c2cccc(Cl)c2OCc2ccccc2)c(O)c2nccnc21` [Compound 10.003], the “percentage damage caused to the plant, SETFA” value in the assay with Setaria faberi (SETFA) is 5 (5=80-100%). Besides, the “percentage damage caused to the plant, IPOHE” value in assay [1] is reported as 5 (5=80-100%). In addition, in the assay on Solanum nigrum (SOLNI), the “percentage damage caused to the plant, SOLNI” value is 5 (5=80-100%). Further, the “percentage damage caused to the plant, ALOMY” value in assay [2] is 4 (4=60-79%). Further, the “percentage damage caused to the plant, ECHCG” value in assay [3] is 5 (5=80-100%). Moreover, the “percentage damage caused to the plant, AMARE” value in assay [4] is 5 (5=80-100%).
For the molecule `CC(C)C(=O)Oc1c(-c2cccc(Cl)c2OCc2ccccc2)c(=O)n(CC(F)F)c2ncccc12` [Compound 11.001], the “percentage damage caused to the plant, SETFA” value in the assay with Setaria faberi (SETFA) is given as 1 (1=0-19%). Also, in assay [1], the “percentage damage caused to the plant, IPOHE” value is 5 (5=80-100%). For the same molecule, in the assay on Solanum nigrum (SOLNI), the “percentage damage caused to the plant, SOLNI” value is reported as 5 (5=80-100%). Besides, the “percentage damage caused to the plant, ALOMY” value in assay [2] was 1 (1=0-19%). Moreover, the “percentage damage caused to the plant, ECHCG” value in assay [3] is on record as 1 (1=0-19%). Also, in assay [4], the “percentage damage caused to the plant, AMARE” value is listed as 5 (5=80-100%).
For `CC(C)C(=O)Oc1c(-c2cccc(Cl)c2OCc2ccccc2)c(=O)n(CC(F)F)c2nccnc12` [Compound 11.003], the “percentage damage caused to the plant, SETFA” value in the assay with Setaria faberi (SETFA) is reported as 5 (5=80-100%). Moreover, the “percentage damage caused to the plant, IPOHE” value in assay [1] is recorded as 5 (5=80-100%). Besides, the “percentage damage caused to the plant, SOLNI” value in the assay with Solanum nigrum (SOLNI) was 5 (5=80-100%). Besides, in assay [2], the “percentage damage caused to the plant, ALOMY” value is on record as 2 (2=20-39%). Also, the “percentage damage caused to the plant, ECHCG” value in assay [3] was 5 (5=80-100%). Moreover, the “percentage damage caused to the plant, AMARE” value in assay [4] is 5 (5=80-100%).
With `O=c1c(-c2cccc(Cl)c2OCc2ccccc2)c(O)c2cccnc2n1CC(F)F` [Compound 12.001], the “percentage damage caused to the plant, SETFA” value in the assay on Setaria faberi (SETFA) is 1 (1=0-19%). The “percentage damage caused to the plant, IPOHE” value in assay [1] is 5 (5=80-100%). Besides, the “percentage damage caused to the plant, SOLNI” value in the assay with Solanum nigrum (SOLNI) is 5 (5=80-100%). Also, the “percentage damage caused to the plant, ALOMY” value in assay [2] is 1 (1=0-19%). Also, in assay [3], the “percentage damage caused to the plant, ECHCG” value is 1 (1=0-19%). Further, the “percentage damage caused to the plant, AMARE” value in assay [4] is listed as 5 (5=80-100%).
On to `O=c1c(-c2cccc(Cl)c2OCc2ccccc2)c(O)c2nccnc2n1CC(F)F` [Compound 12.003], for which the “percentage damage caused to the plant, SETFA” value with Setaria faberi (SETFA) is reported as 5 (5=80-100%). Also, the “percentage damage caused to the plant, IPOHE” value in assay [1] is 5 (5=80-100%). Further, the “percentage damage caused to the plant, SOLNI” value in the assay on Solanum nigrum (SOLNI) is 5 (5=80-100%). Moreover, the “percentage damage caused to the plant, ALOMY” value in assay [2] is recorded as 2 (2=20-39%). Further, the “percentage damage caused to the plant, ECHCG” value in assay [3] was 5 (5=80-100%). Further, the “percentage damage caused to the plant, AMARE” value in assay [4] is on record as 5 (5=80-100%).
